Legend:
[1] = Blood plasma levels after oral administration to rats; type: in vivo; details: rat, 10 mg/kg, 5 mL/Kg of 2 mg/mL lipid emulsion; for AUC(0-t): heading: AUC0-24, oral gavage; for Cmax: oral gavage
Procedure: (§1) Exemplary compounds were administered orally to animals (i.e., mice or rats), and then blood samples were taken from the animal at set time points and analyzed for the amount of test compound in the blood sample. Experimental procedures and results are described below.
(§2) A lipid emulsion containing the test compound was prepared by first dissolving the test compound in 1:4 Labrafil M1944:Solutol, then adding 0.5% carboxymethylcellulose in water with vigorous stirring to achieve a final ratio of 5:20:75 Labrafil:Solutol:0.5% aqueous CMC. The concentration of test compound in the lipid emulsion was 2 mg/mL.
(§3) Animals (mice or rats) were dosed by oral gavage using 5 mL/Kg of dosing solution. Animals were serially bled from the dorsal metatarsal vein (mice) or jugular vein (rats) at 30 minutes, 1 h, 2 h, 4 h, 8 h and 24 h post-dose. Test compounds 1 and B-1 were administered to a mice. Test compounds A-1 and B-2 were administered to rats.
(§4) The desired serial concentrations of working solutions were achieved by diluting a stock solution of analyte with 60% acetonitrile in water solution. A 5 μL aliquot of working solutions at 10, 20, 50, 100, 500, 1000, 5000, and 10000 ng/mL were added to 50 μL of blank plasma to achieve calibration standards of 1-1000 ng/mL (1, 2, 5, 10, 50, 100, 500, 1000 ng/mL) in a total volume of 55 μL.
(§5) Four quality control samples at 3 ng/mL (low 1), 5 ng/mL (low 2), 50 ng/mL (medium), and 800 ng/mL (high) were prepared independently of those used for the calibration curves. These QC samples were prepared on the day of analysis in the same way as calibration standards.
(§6) 55 μL standards, 55 μL QC samples, and 55 μL unknown samples were added to 200 μL of acetonitrile for precipitating protein respectively. Then, the samples were vortexed for 30 seconds at 4 degree Celsius. After centrifugation at 4 degree Celsius (i.e., 15000 rpm for 5 min) a 20 μL aliquot of the supernatant was analyzed by LC/MS. Unknowns were compared to standards to obtain test compound concentrations for each sample.

Ramos cells = test: Cytotoxicity in Ramos cells; type: cell-based; details: Homo sapiens, read-out: Ramos Cell EC50
Procedure: Exemplary compounds described in above Examples were tested for activity against F1F0-ATPase by measuring the ability of the compounds to inhibit ATP synthesis. In addition, the compounds were assessed for cytotoxicity in Ramos cells. Inhibition of F1F0-ATPase activity in synthesizing ATP and cytotoxicity in Ramos cells were measured according to the procedures described in K. M. Johnson et al. Chemistry & Biology 2005, 12, 485-496.

[2] = Blood plasma levels after oral administration to mice; type: in vivo; details: mouse, 10 mg/kg, 5 mL/Kg of 2 mg/mL lipid emulsion
Procedure: as §1, §2, §3, §4, §5, §6

| SMILES | EC50 (Ramos cells) [µM] | also measured |
| --- | --- | --- |
| Cc1c(N/C(=N\C(=O)c2cccc(Cl)c2)Nc2cc(F)cc(Cl)c2)n[nH]c1C(F)(F)F [Compound A-1] | < 10 | AUC(0-t) [1]: 10500 ng·h/mL; Cmax [1]: 1440 ng/mL |
| CCn1nc(C(F)(F)F)c(C)c1N/C(=N\C(=O)c1cccc(Cl)c1)Nc1cc(F)cc(Cl)c1 [Compound A-17] | < 10 | – |
| COc1ccc(C(=O)N=C(Nc2cc(F)cc(Cl)c2)Nc2n[nH]c(C(F)(F)F)c2C)cc1 [Compound A-2] | < 10 | – |
| CCn1nc(C(F)(F)F)c(C)c1N/C(=N\C(=O)c1ccc(Cl)cc1Cl)Nc1cc(F)cc(Cl)c1 [Compound A-12] | < 10 | – |
| Cc1c(NC(=NC(=O)c2ccc(C(F)(F)F)cc2)Nc2cccc(Cl)c2)n[nH]c1C(F)(F)F [Compound A-42] | < 10 | – |
| Cc1c(NC(=NC(=O)c2ccc(Cl)cc2)Nc2cc(F)cc(Cl)c2)n[nH]c1C(F)(F)F [Compound A-36] | < 10 | – |
| Cc1c(C(F)(F)F)n[nH]c1NC(=NC(=O)c1ccc(Cl)cc1Cl)Nc1cc(F)cc(Cl)c1 [Compound A-11] | < 10 | – |
| CCn1nc(C(F)(F)F)c(C)c1N/C(=N\C(=O)c1ccc(Cl)cc1)Nc1cc(F)cc(Cl)c1 [Compound A-24] | < 10 | – |
| CCn1nc(C(F)(F)F)c(C)c1N/C(=N\C(=O)c1ccc(Cl)c(F)c1)Nc1cccc(Cl)c1 [Compound A-29] | < 10 | – |
| CCn1nc(C(F)(F)F)c(C)c1N/C(=N\C(=O)c1ccc(Cl)c(F)c1)Nc1cccc(C(F)(F)F)c1 [Compound A-28] | < 10 | – |
| Cc1ccc(N/C(=N/C(=O)c2ccc(F)c(F)c2)Nc2[nH]nc(C(F)(F)F)c2C)c(Cl)c1 [Compound A-31] | < 10 | – |
| Cc1c(N/C(=N\C(=O)c2ccc(F)c(F)c2)Nc2cc(F)cc(Cl)c2)n[nH]c1C(F)(F)F [Compound 1, N-(((3-Chloro-5-fluorophenyl)amino)((4-methyl-5-(trifluoromethyl)-1H-pyrazol-3-yl)amino)methylene)-3,4-difluorobenzamide] | < 10 | Cmax ([2]; oral gavage): 1590 ng/mL; AUC(0-t) ([2]; oral gavage, read-out: AUC0-24): 8760 ng·h/mL |
| Cc1ccc(NC(=NC(=O)c2cccc(Cl)c2)Nc2n[nH]c(C(F)(F)F)c2C)c(Cl)c1 [Compound A-35] | < 10 | – |
| Cc1c(NC(=NC(=O)c2ccc(Cl)cc2)Nc2cccc(C(F)(F)F)c2)n[nH]c1C(F)(F)F [Compound A-37] | < 10 | – |
| CCn1nc(C(F)(F)F)c(C)c1N/C(=N\C(=O)c1ccc(F)c(F)c1)Nc1cccc(C(F)(F)F)c1 [Compound A-21] | < 10 | – |
| COc1ccc(C(=O)N=C(Nc2cccc(Cl)c2)Nc2n[nH]c(C(F)(F)F)c2C)cc1 [Compound A-10] | < 10 | – |
| Cc1c(C(F)(F)F)n[nH]c1NC(=NC(=O)c1ccc(F)c(F)c1)Nc1ccc(Cl)cc1Cl [Compound A-30] | < 10 | – |
| Cc1c(NC(=NC(=O)c2ccc(Cl)c(F)c2)Nc2cccc(Cl)c2)n[nH]c1C(F)(F)F [Compound A-41] | < 10 | – |
| Cc1c(NC(=NC(=O)c2ccc(Cl)cc2Cl)Nc2cccc(C(F)(F)F)c2)n[nH]c1C(F)(F)F [Compound A-8] | < 10 | – |
| CCn1nc(C(F)(F)F)c(C)c1N/C(=N\C(=O)c1ccc(F)c(F)c1)Nc1cccc(Cl)c1 [Compound A-22] | < 10 | – |

| SMILES | EC50 (Ramos cells) [µM] | also measured |
| --- | --- | --- |
| Cc1ccc(NC(=NC(=O)c2ccc(Cl)cc2Cl)Nc2n[nH]c(C(F)(F)F)c2C)c(Cl)c1 [Compound A-33] | < 10 | – |
| Cc1c(NC(=NC(=O)c2ccc(Cl)cc2)Nc2cccc(Cl)c2)n[nH]c1C(F)(F)F [Compound A-38] | < 10 | – |
| CCn1nc(C(F)(F)F)c(C)c1N/C(=N\C(=O)c1ccc(OC)cc1)Nc1cccc(C(F)(F)F)c1 [Compound A-15] | < 10 | – |
| O=C(/N=C(/Nc1cc(F)cc(Cl)c1)Nc1cc(C(F)(F)F)[nH]n1)c1cccc(Cl)c1 [Compound B-2, reference compound] | – | AUC(0-t) [1]: 5480 ng·h/mL; Cmax [1]: 541 ng/mL |
| CCn1nc(C(F)(F)F)c(C)c1N/C(=N\C(=O)c1ccc(Cl)cc1)Nc1cccc(C(F)(F)F)c1 [Compound A-25] | < 10 | – |
| CCn1nc(C(F)(F)F)c(C)c1N/C(=N\C(=O)c1ccc(Cl)cc1Cl)Nc1cccc(Cl)c1 [Compound A-23] | < 10 | – |
| CCn1nc(C(F)(F)F)c(C)c1N/C(=N\C(=O)c1ccc(Cl)cc1)Nc1cccc(Cl)c1 [Compound A-26] | < 10 | – |
| Cc1c(NC(=NC(=O)c2ccc(Cl)c(F)c2)Nc2cc(F)cc(Cl)c2)n[nH]c1C(F)(F)F [Compound A-39] | < 10 | – |
| Cc1c(NC(=NC(=O)c2ccc(Cl)cc2Cl)Nc2cccc(Cl)c2)n[nH]c1C(F)(F)F [Compound A-9] | < 10 | – |
| CCn1nc(C(F)(F)F)c(C)c1N/C(=N\C(=O)c1cccc(Cl)c1)Nc1cccc(C(F)(F)F)c1 [Compound A-18] | < 10 | – |
| CCn1nc(C(F)(F)F)c(C)c1N/C(=N\C(=O)c1ccc(F)c(F)c1)Nc1cc(F)cc(Cl)c1 [Compound A-20] | < 10 | – |
| Cc1c(NC(=NC(=O)c2cccc(Cl)c2)Nc2cccc(Cl)c2)n[nH]c1C(F)(F)F [Compound A-7] | < 10 | – |
| CCn1nc(C(F)(F)F)c(C)c1N/C(=N\C(=O)c1ccc(OC)cc1)Nc1cc(F)cc(Cl)c1 [Compound A-14] | < 10 | – |
| CCn1nc(C(F)(F)F)c(C)c1N/C(=N\C(=O)c1ccc(Cl)c(F)c1)Nc1cc(F)cc(Cl)c1 [Compound A-27] | < 10 | – |
| Cc1c(NC(=NC(=O)c2ccc(Cl)cc2Cl)Nc2ccc(Cl)cc2Cl)n[nH]c1C(F)(F)F [Compound A-32] | < 10 | – |
| CCn1nc(C(F)(F)F)c(C)c1N/C(=N\C(=O)c1cccc(Cl)c1)Nc1cccc(Cl)c1 [Compound A-19] | < 10 | – |
| O=C(/N=C(/Nc1cc(F)cc(Cl)c1)Nc1cc(C(F)(F)F)[nH]n1)c1ccc(F)c(F)c1 [Compound B-1, reference compound] | – | AUC(0-t) ([2]; heading: AUC0-24, oral gavage): 4530 ng·h/mL; Cmax ([2]; oral gavage): 609 ng/mL |
| CCn1nc(C(F)(F)F)c(C)c1N/C(=N\C(=O)c1ccc(Cl)cc1Cl)Nc1cccc(C(F)(F)F)c1 [Compound A-13] | < 10 | – |
| CCn1nc(C(F)(F)F)c(C)c1N/C(=N\C(=O)c1ccc(OC)cc1)Nc1cccc(Cl)c1 [Compound A-16] | < 10 | – |

From patent US9815791B2, “Alkylpyrazolyl guanidine F1F0-ATPase inhibitors and therapeutic uses thereof” (Lycera Corporation, priority 2013, dated 2017)
